3 molecules from patent US9498455B2, “Cinacalcet and neuroblastic tumours” (HOSPITAL SAINT JOAN DE DEU, priority 2012, dated 2016) can be followed below.

The test system of one test is LA1-55n. The experiment in a line: Cell viability (MTS) after 72 hours, LA1-55n neuroblastoma cell line. It counts as cell-based. The note with it: no unit in table, tested concentrations given in μM, read-out: IC50 (drug concentration causing the death of 50% of the cells with respect to the control). How it is done: (§1) 5×10^3 cells of each cell line (LAN-1, SK-N-BE(2)c, LA1-55n, LA1-5s, SK-N-LP, SK-N-JD, SK-N-AS) were seeded in 96-well plates (6 replicates per condition). The initial medium (RPMI 10% FBS) was removed the next day and substituted with the same medium containing several concentrations (100 μM, 65 μM, 30 μM, 25 μM, 20 μM, 15 μM, 10 μM, 5 μM, 3 μM, 1 μM, 0.3 μM) of cinacalcet (Selleck Biochemicals) or NPS R-568 (Tocris) or equivalent amounts of DMSO (Sigma-Aldrich). Cell viability was evaluated after 72 hours by means of quantifying the percentage of viable cells by means of the Promega CellTiter 96(r) Aqueous One Solution Cell Proliferation Assay (MTS) system. It was thus observed that both drugs induced a decrease in cell viability in the 7 cell lines examined (FIG. 2), and that in 5 of said cell lines the IC50 (drug concentration causing the death of 50% of the cells with respect to the control) of cinacalcet was less than that of NPS R-568 in a statistically significant manner (Table 1). In the case of SK-N-AS and LA1-55n cell lines, the difference in the effect promoted by both drugs was not statistically significant (Table 1).

Another test relates to SK-N-BE(2)C. The experiment in a line: Cell viability (MTS) after 72 hours, SK-N-BE(2)c neuroblastoma cell line. It counts as cell-based. As to conditions: no unit in table, tested concentrations given in μM, read-out: IC50 (drug concentration causing the death of 50% of the cells with respect to the control). How it is done:
as §1

The subject of another test is SK-N-LP. The experiment in a line: Cell viability (MTS) after 72 hours, SK-N-LP neuroblastoma cell line. It counts as cell-based. The note with it: no unit in table, tested concentrations given in μM, read-out: IC50 (drug concentration causing the death of 50% of the cells with respect to the control). How it is done: as §1
Test [1] relates to Xenografts of LAN-1 cell line. The test can be described thus: In vivo model of neuroblastoma, LAN-1 xenografts, morphological examination. Set-up: species or system athymic nu/nu mice. The note with it: LAN-1 xenograft, oral 100 mg/kg 6 days a week from day 12, sacrificed after 40 days. How it is done:
(§2) Xenografts of LAN-1 and SK-N-LP cell lines were generated for which aliquots containing 10×10^6 cells from said cell lines were inoculated subcutaneously in 4-6 week old female athymic nu/nu mice (Charles Rivers). Starting from day 12, when the forming tumor could already be measured using Vernier calipers, oral treatment was started 6 days a week with cinacalcet 100 mg/kg (FIGS. 3C-3F) and with the carrier as a negative control (FIGS. 3A and 3B). The tumor volume was measured every 2-3 days. The mice were sacrificed after 40 days. Each tumor was weighed before being sectioned into two halves: one half was frozen in liquid nitrogen for expression analysis and the other half was fixed and embedded in paraffin for morphological examination and immunohistochemical analyses.

A further test relates to LA1-5s. The test can be described thus: Cell viability (MTS) after 72 hours, LA1-5s neuroblastoma cell line. It counts as cell-based. As to conditions: no unit in table, tested concentrations given in μM, read-out: IC50 (drug concentration causing the death of 50% of the cells with respect to the control). How it is done: as §1
The test system of another test is SK-N-JD. The experiment in a line: Cell viability (MTS) after 72 hours, SK-N-JD neuroblastoma cell line. It counts as cell-based. The note with it: no unit in table, tested concentrations given in μM, read-out: IC50 (drug concentration causing the death of 50% of the cells with respect to the control). How it is done: as §1
Test [2] deals with Xenografts of SK-N-LP cell line. The test can be described thus: In vivo model of neuroblastoma, SK-N-LP xenografts, morphological examination. The note with it: SK-N-LP xenograft, oral 100 mg/kg 6 days a week from day 12, sacrificed after 40 days. Set-up: species or system athymic nu/nu mice. How it is done:
as §2

In the next test the test system is LAN-1. The test can be described thus: Cell viability (MTS) after 72 hours, LAN-1 neuroblastoma cell line. In kind it is cell-based. The note with it: LAN1, LAN-1, 72 hours, no unit in table, tested concentrations given in μM, read-out: IC50 (drug concentration causing the death of 50% of the cells with respect to the control). How it is done:
as §1

In another test the test system is SK-N-AS. The experiment in a line: Cell viability (MTS) after 72 hours, SK-N-AS neuroblastoma cell line. As to conditions: Homo sapiens, no unit in table, tested concentrations given in μM, read-out: IC50 (drug concentration causing the death of 50% of the cells with respect to the control). In kind it is cell-based. As for the experimental part:
as §1

Test [3] concerns SK-N-LP cells with overexpression of CASR. The test can be described thus: CASR activation by calcium after serum deprivation, SK-N-LP cells with overexpression of CASR. It counts as cell-based. How it is done:
(§3) Wild type SK-N-LP cells stably transfected with pCMV-GFP or pCMV-CASR-GFP (1×10^6) in RPMI 10% FBS were seeded in P100 plates. The medium was substituted the next day with a serum-free medium (calcium-free DMEM supplemented with 0.2% bovine albumin, 4 mM L-glutamine and 0.5 mM CaCl2). This was maintained for 16 hours before substituting it with the same medium supplemented or not supplemented with up to 3 mM CaCl2. […] In the latter cell lines, indications of cell death were detected, but the cells continued to proliferate until reaching confluence, whereas cells with overexpression of CASR completely disappeared in 5 days.
In order to determine if the cell death process occurred by means of apoptosis, total proteins of wild type SK-N-LP cells (WT) and cells with overexpression of CASR (CASR) were extracted 24 and 48 hours after exposure to this model. The proteins were subjected to SDS-PAGE gel electrophoresis, transferred to a nitrocellulose membrane and incubated with specific antibodies to detect activated caspase 3 and c-PARP (Cell Signaling). Suitable secondary antibodies labeled with peroxidase were used, and it was developed with the Amersham ECL system.

A further test deals with wild type SK-N-LP cells. The experiment in a line: CASR activation by calcium after serum deprivation, wild type or pCMV-GFP SK-N-LP cells. It counts as cell-based. As to conditions: 3 mM CaCl2 after 16 hours serum deprivation; wild type or pCMV-GFP transfected. How it is done: as §3

SMILES strings stand for the structures.

As to `C[C@@H](NCCCc1cccc(C(F)(F)F)c1)c1cccc2ccccc12` [Cinacalcet, cinacalcet], the IC50 came out at 10.5 µM with LA1-55n; 10.7 µM in the test on SK-N-BE(2)C; 10.3 µM in the test with SK-N-LP; 16.7 µM in the test on LA1-5s; 10.9 µM with SK-N-JD; 17.2 µM in the test with LAN-1. Further, in the test with SK-N-AS, the IC50 is 10.3 µM. The “Morphological analysis of the xenografts: cell death” value in [1] and in [2] was “large areas with necrosis and/or apoptosis” each time. The “Morphological analysis of the xenografts: differentiation” value in [1] and in test [2] was “morphological signs of differentiation in viable cells” in each case.
With `[Ca+2].[Cl-].[Cl-]` [CaCl2], the figures for the “Cell death (morphology)” value (in [3] (3 mM CaCl2 after 16 hours serum deprivation); in the test with wild type SK-N-LP cells) were “suffered cell death” and “hardly appreciable”, respectively. Besides, the “Caspase 3 activation and PARP cleavage (Western blot)” value in test [3] (24 and 48 hours after exposure to 3 mM CaCl2 model) was “accompanied by caspase 3 activation and PARP cleavage”.
As for `COc1cccc([C@@H](C)NCCCc2ccccc2Cl)c1` [NPS R-568], the IC50 in the test with LA1-55n is 11.4 µM; in the test with SK-N-BE(2)C it was 16.6 µM; with SK-N-LP, 22.4 µM; in the test on LA1-5s, 34.5 µM; in the test with SK-N-JD it was 25.8 µM; in the test with LAN-1 it was 24.8 µM. In the test with SK-N-AS, the IC50 is 15.1 µM.
